Experimental data reported in PubChem BioAssay (NCI).
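Following 48 hours of exposure in 96-well plates, responses at five concentrations were used to interpolate endpoints linearly. GI50 marks 50% less growth. TGI marks complete inhibition of growth.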

Key:
Test in all cases: DTP human tumour cell line panel, 48 h
HL-60(TB) leukemia = system: HL-60(TB) leukemia
M14 melanoma = system: M14 melanoma
MALME-3M melanoma = system: MALME-3M melanoma
NCI-H460 lung = system: NCI-H460 lung
OVCAR-5 ovarian = system: OVCAR-5 ovarian
SK-MEL-2 melanoma = system: SK-MEL-2 melanoma
SK-OV-3 ovarian = system: SK-OV-3 ovarian
SN12C renal = system: SN12C renal
T-47D breast = system: T-47D breast
SR leukemia = system: SR leukemia

Structure (SMILES)	TGI (HL-60(TB) leukemia) [µM]	TGI (M14 melanoma) [µM]	TGI (MALME-3M melanoma) [µM]	TGI (NCI-H460 lung) [µM]	TGI (OVCAR-5 ovarian) [µM]	TGI (SK-MEL-2 melanoma) [µM]	TGI (SK-OV-3 ovarian) [µM]	TGI (SN12C renal) [µM]	TGI (T-47D breast) [µM]	GI50 (HL-60(TB) leukemia) [µM]	GI50 (M14 melanoma) [µM]	GI50 (MALME-3M melanoma) [µM]	GI50 (NCI-H460 lung) [µM]	GI50 (SK-OV-3 ovarian) [µM]	GI50 (SN12C renal) [µM]	GI50 (SR leukemia) [µM]	TGI (SR leukemia) [µM]	GI50 (SK-MEL-2 melanoma) [µM]	GI50 (T-47D breast) [µM]
Cc1ccc(OCC2OC(n3cnc4c(N(C)C)nc(Br)nc43)CC2Oc2ccc(C)cc2)cc1 (stereo unspecified)	> 100	> 100	> 100	> 100	> 100	> 100	> 100	> 100	> 100	–	–	–	–	–	–	–	–	–	–
CC(C)=CC(=O)O[C@H]1C(=O)O[C@@H]2C[C@H]3[C@H](C)C(=O)C(O[C@@H]4O[C@H](CO)[C@@H](O)[C@H](O)[C@H]4O)=C[C@]3(C)[C@H]3[C@@H](O)[C@H](O)[C@]4(C(=O)O)OC[C@]32[C@@H]14	> 100	> 100	61.1	> 100	> 100	–	> 100	> 100	> 100	35.8	32.1	24.2	32	> 100	> 100	31.2	> 100	–	–
C=C1C(=O)OC2(C)C3CCC(C3)C12 (stereo unspecified)	84.6	95.7	> 100	> 100	> 100	> 100	> 100	> 100	–	–	–	–	–	–	–	–	> 100	–	–
c1ccc(-c2sc(-c3cccs3)cc2Cc2cccs2)cc1	> 10	> 10	> 10	> 10	–	–	> 10	> 10	> 10	–	–	–	–	–	–	–	> 10	–	–
CN1C(=S)C(c2ccccc2)Sc2ccccc21 (stereo unspecified)	> 100	> 100	> 100	> 100	> 100	–	> 100	> 100	> 100	–	–	–	–	–	–	–	> 100	–	–
Cc1cc(-c2[nH]c(C(=O)O)cc2I)on1	–	> 100	> 100	> 100	> 100	> 100	> 100	–	–	–	–	–	–	–	–	–	–	–	–
CCCCc1c(C(=O)OC(C)(C)C)cc(C#Cc2cc(C(=O)OC(C)(C)C)c(CCCC)c(C(=O)OC(C)(C)C)c2)cc1C(=O)OC(C)(C)C	–	> 100	> 100	> 100	> 100	> 100	> 100	> 100	> 100	–	–	–	–	–	–	–	–	–	–
O=C(O)CCCCCOc1cccnc1/C=N/NC1=NCCN1	> 100	> 100	> 100	> 100	> 100	> 100	> 100	> 100	–	–	–	–	–	–	–	–	> 100	–	–
C=CC1ON(Cc2ccccc2)CCc2cc(OC)c(OC)cc21 (stereo unspecified)	94.4	> 100	> 100	> 100	> 100	–	> 100	> 100	> 100	–	–	–	–	–	–	–	> 100	–	–
CCCCCC(=O)c1ccc2[nH]c3c(C)cc([N+](=O)[O-])c(C)c3c2c1	> 100	> 100	> 100	> 100	> 100	> 100	–	> 100	–	–	–	–	–	–	–	–	> 100	–	–
C1CSCCCSCCSCCCSC1	–	> 100	–	> 100	> 100	> 100	> 100	> 100	> 100	–	–	–	–	–	–	–	–	–	–
O=c1c(SSc2coc3cc(F)ccc3c2=O)coc2cc(F)ccc12	54.7	–	> 100	98.3	> 100	–	–	36.6	46.6	–	–	–	–	–	–	–	> 100	–	–
O=c1[nH]nc(-c2ccccc2)n1/N=C/c1c[nH]c2ccccc12	> 100	> 100	> 100	> 100	> 100	> 100	> 100	> 100	> 100	–	–	–	–	–	–	–	–	–	–
CC1(C)[C@@H](Cn2cnc3c(N)ncnc32)CC[C@@]1(C)CO	> 100	> 100	> 100	> 100	> 100	–	> 100	> 100	> 100	–	–	–	–	–	–	–	76.8	–	–
COc1ccccc1-c1cc(=O)c2ccccc2[nH]1	> 100	> 100	> 100	> 100	–	–	> 100	> 100	–	–	–	–	–	–	–	–	> 100	–	–
CC(C)[C@@H]1CC[C@@H](C)C[C@H]1OC(=O)/C=C1/C2C=CC(O2)C1C(=O)O[C@@H]1C[C@H](C)CC[C@H]1C(C)C (stereo partly specified)	> 100	> 100	> 100	> 100	> 100	–	> 100	> 100	> 100	–	–	–	–	–	–	–	> 100	–	–
CC(C)CCC[C@@H](C)[C@H]1CCC2C3CC=C4C[C@@H](Oc5c6ccccc6nc6ccccc56)CCC4C3CCC21 (stereo partly specified)	> 50	> 50	> 50	> 50	> 50	> 50	> 50	> 50	> 50	–	–	–	–	–	–	–	–	–	–

Structure (SMILES)	TGI (HL-60(TB) leukemia) [µM]	TGI (M14 melanoma) [µM]	TGI (MALME-3M melanoma) [µM]	TGI (NCI-H460 lung) [µM]	TGI (OVCAR-5 ovarian) [µM]	TGI (SK-MEL-2 melanoma) [µM]	TGI (SK-OV-3 ovarian) [µM]	TGI (SN12C renal) [µM]	TGI (T-47D breast) [µM]	GI50 (HL-60(TB) leukemia) [µM]	GI50 (M14 melanoma) [µM]	GI50 (MALME-3M melanoma) [µM]	GI50 (NCI-H460 lung) [µM]	GI50 (SK-OV-3 ovarian) [µM]	GI50 (SN12C renal) [µM]	GI50 (SR leukemia) [µM]	TGI (SR leukemia) [µM]	GI50 (SK-MEL-2 melanoma) [µM]	GI50 (T-47D breast) [µM]
O=C(Nc1nc2c(=O)[nH]cnc2s1)c1ccccc1	> 100	–	> 100	> 100	> 100	> 100	> 100	> 100	–	–	–	–	–	–	–	–	61.9	–	–
N=c1nnc(=O)c2c(s1)-n1ncc(C(=O)O)c1NN2	> 100	> 100	> 100	–	> 100	–	> 100	> 100	–	–	–	–	–	–	–	–	> 100	–	–
COC(=O)c1cc(NC(=O)c2cc(NC(=O)c3cc([N+](=O)[O-])cn3C)cn2C)cn1C	> 100	> 100	> 100	> 100	> 100	> 100	> 100	> 100	> 100	–	–	–	–	–	–	–	–	–	–
NNc1nc2ccccc2c(=O)n1NC(=O)C(=O)Nc1cccc(C(F)(F)F)c1	> 100	> 100	> 100	> 100	> 100	> 100	> 100	> 100	> 100	–	–	–	–	–	–	–	–	–	–
COc1cc2c(c(OC)c1OC)-c1ccc(SC)c(=O)cc1[C@@H](OC(C)=O)CC2	0.0242	> 100	> 100	> 100	–	–	–	> 100	> 100	–	–	–	–	–	–	–	> 100	–	–
N#Cc1c(SCc2ccccc2)nc(-c2ccccc2)[nH]c1=S	> 100	89.8	> 100	51.4	53.6	32.4	60.1	82	80.2	–	–	–	–	–	–	–	–	–	–
Cc1ccsc1/C=N/Nc1cc(C)c2cccc(C)c2n1	71.2	> 100	–	–	> 100	> 100	> 100	> 100	> 100	–	–	–	–	–	–	–	–	–	–
Clc1nc(Cl)c(Cl)c(Cl)n1	33.1	34.4	35.9	51.9	43.1	–	30.3	42.7	41	–	–	–	–	–	–	–	14.6	–	–
CCCCCC(=O)N[C@@H](c1ccccc1)C(O)C(=O)OC1C[C@@]2(O)C(OC(=O)c3ccccc3)C3[C@](C)(C(=O)[C@H](O)C(=C1C)C2(C)C)C(OC1OCC(O)C(O)C1O)C[C@H]1OC[C@@]31OC(C)=O (stereo partly specified)	7.79	> 88.1	> 26.1	> 100	> 100	–	57.2	> 100	> 100	–	–	–	–	–	–	–	40.2	–	–
CCOc1ccc(/C=C(\Cl)c2ccc(OC)c(OC)c2)cc1	> 100	89.6	> 100	–	–	–	> 100	> 100	–	–	–	–	–	–	–	–	91.4	–	–
O=C1O/C(=C(\Br)c2cccc3ccccc23)c2ccccc21	47.7	> 62.8	> 60.6	> 73	> 54.9	> 61	> 55.8	47.2	–	–	–	–	–	–	–	–	51.5	–	–
CC(=O)[C@@H]1CCC=C2CC[C@]3(C)[C@@H](CC[C@@H]4[C@@]5(C)CCCNC(C)(C)[C@@H]5CC[C@]43C)[C@H]21	–	–	–	–	–	3.69	3.37	3.31	3.47	–	–	–	–	1.81	1.79	–	–	2.01	1.72
Cc1sc2nc(-c3cc([N+](=O)[O-])c(Cl)cc3Cl)c(/C=N/N=C(N)N)n2c1C	–	7	39.3	54.7	> 100	5.78	–	28.5	–	–	–	–	–	–	–	–	–	–	–
CCCCCCCC(=O)OC(CBr)COC(=O)C(C)(C)C (stereo unspecified)	> 100	> 100	> 100	> 100	> 100	> 100	> 100	> 100	–	–	–	–	–	–	–	–	57.1	–	–
CNc1ccc(-c2nc3cc(C)ccc3o2)cc1	> 100	> 100	> 100	> 100	> 100	> 100	61	> 100	> 100	–	–	–	–	–	–	–	–	–	–
CCCCCCCCCCCCCCCCCCNc1ccn(C2OC(COP(=O)(O)OCC3CCC(n4cnc5c(=O)[nH]cnc54)O3)C(O)C2O)c(=O)n1 (stereo unspecified)	–	> 100	> 100	> 100	> 100	> 100	> 100	> 100	> 100	–	–	–	–	–	–	–	–	–	–
O=C(Nc1nc2ccccc2n1Cc1ccccc1)NC12CC3CC(CC(C3)C1)C2	> 100	> 100	> 100	> 100	> 100	> 100	> 100	> 100	–	–	–	–	–	–	–	–	> 100	–	–
